# Assay results: PMC3463134 (Chembiochem : a European journal of chemical biology, 2012)
# T1: KtzI (Kutzneria sp. 744, UniProt A8CF85)
# T1 sequence (A8CF85 1-424): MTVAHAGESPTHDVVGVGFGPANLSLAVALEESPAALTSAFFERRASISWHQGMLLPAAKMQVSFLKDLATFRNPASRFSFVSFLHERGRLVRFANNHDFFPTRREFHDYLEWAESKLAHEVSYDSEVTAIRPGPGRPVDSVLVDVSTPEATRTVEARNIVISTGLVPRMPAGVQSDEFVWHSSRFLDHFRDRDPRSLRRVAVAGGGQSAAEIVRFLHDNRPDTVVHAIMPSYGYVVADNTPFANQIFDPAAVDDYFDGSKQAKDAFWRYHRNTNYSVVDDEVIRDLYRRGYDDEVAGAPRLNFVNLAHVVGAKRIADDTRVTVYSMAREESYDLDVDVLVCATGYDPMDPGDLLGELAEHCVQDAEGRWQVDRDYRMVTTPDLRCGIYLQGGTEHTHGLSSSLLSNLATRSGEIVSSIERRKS
# B1: KtzI (Kutzneria sp. 744) (protein)
# chain: MTVAHAGESPTHDVVGVGFGPANLSLAVALEESPAALTSAFFERRASISWHQGMLLPAAKMQVSFLKDLATFRNPASRFSFVSFLHERGRLVRFANNHDFFPTRREFHDYLEWAESKLAHEVSYDSEVTAIRPGPGRPVDSVLVDVSTPEATRTVEARNIVISTGLVPRMPAGVQSDEFVWHSSRFLDHFRDRDPRSLRRVAVAGGGQSAAEIVRFLHDNRPDTVVHAIMPSYGYVVADNTPFANQIFDPAAVDDYFDGSKQAKDAFWRYHRNTNYSVVDDEVIRDLYRRGYDDEVAGAPRLNFVNLAHVVGAKRIADDTRVTVYSMAREESYDLDVDVLVCATGYDPMDPGDLLGELAEHCVQDAEGRWQVDRDYRMVTTPDLRCGIYLQGGTEHTHGLSSSLLSNLATRSGEIVSSIERRKS
# How the values were obtained:
# KtzI = target: T1, KtzI; assay: NADPH oxidation assay; assay type: biochemical; settings: FAD, non-substrate effector (uncoupled NADPH oxidation)
# purified protein = substrate: NCCC[C@H](N)C(=O)O; assay: purified protein; settings: FAD cofactor; NAD(P)H and O2 cosubstrates; apparent kcat
Molecule,NADPH oxidation assay (KtzI),Km (purified protein) [µM],kcat (purified protein) [s⁻¹]
NCCC[C@@H](N)C(=O)O [D-Orn],L-Lys and D-Orn were observed to be non-substrate effectors of the enzyme,,
NCCCC[C@H](N)C(=O)O [L-Lys],L-Lys and D-Orn were observed to be non-substrate effectors of the enzyme,,
B1,,91 ± 8,0.116 ± 0.00217
